In PubChem BioAssay AID1259407 (Chemical Carcinogenesis Research Information System (CCRIS), 2018):
Calls of active or inactive are those of the source. The rule behind the calls is not given here.

Test system: CCRIS mutagenicity, Ames/micronucleus/aberration tests
Experiment: CCRIS mutagenicity studies
[1] = Test System: AMES SALMONELLA TYPHIMURIUM, Strain/Indicator: TA98, Metabolic Activation: NONE, Method: PREINCUBATION
[2] = Test System: AMES SALMONELLA TYPHIMURIUM, Strain/Indicator: TA100, Metabolic Activation: NONE, Method: PREINCUBATION
[3] = Test System: AMES SALMONELLA TYPHIMURIUM, Strain/Indicator: TA1538, Metabolic Activation: NONE, Method: STANDARD PLATE
[4] = Test System: AMES SALMONELLA TYPHIMURIUM, Strain/Indicator: TA98, Metabolic Activation: NONE, Method: STANDARD PLATE
[5] = Test System: AMES SALMONELLA TYPHIMURIUM, Strain/Indicator: TA100, Metabolic Activation: NONE, Method: STANDARD PLATE

CCN(CC)c1cccc(O)c1
mutagenic call (Test System: AMES SALMONELLA TYPHIMURIUM, Strain/Indicator: TA97, Metabolic Activation: HAMSTER, LIVER, S-9, AROCLOR 1254 (10%), Method: PREINCUBATION): active; positive
mutagenic call (Test System: AMES SALMONELLA TYPHIMURIUM, Strain/Indicator: TA97, Metabolic Activation: NONE, Method: PREINCUBATION): inactive; negative
mutagenic call (Test System: AMES SALMONELLA TYPHIMURIUM, Strain/Indicator: TA97, Metabolic Activation: RAT, LIVER, S-9, AROCLOR 1254 (10%), Method: PREINCUBATION): active; positive
mutagenic call (Test System: AMES SALMONELLA TYPHIMURIUM, Strain/Indicator: TA98, Metabolic Activation: HAMSTER, LIVER, S-9, AROCLOR 1254 (10%), Method: PREINCUBATION): active; positive
mutagenic call [1]: inactive; negative
mutagenic call (Test System: AMES SALMONELLA TYPHIMURIUM, Strain/Indicator: TA98, Metabolic Activation: RAT, LIVER, S-9, AROCLOR 1254 (10%), Method: PREINCUBATION): active; positive
mutagenic call (Test System: AMES SALMONELLA TYPHIMURIUM, Strain/Indicator: TA100, Metabolic Activation: HAMSTER, LIVER, S-9, AROCLOR 1254 (10%), Method: PREINCUBATION): active; positive
mutagenic call [2]: inactive; negative
mutagenic call (Test System: AMES SALMONELLA TYPHIMURIUM, Strain/Indicator: TA100, Metabolic Activation: RAT, LIVER, S-9, AROCLOR 1254 (10%), Method: PREINCUBATION): inactive; negative
mutagenic call (Test System: AMES SALMONELLA TYPHIMURIUM, Strain/Indicator: TA1535, Metabolic Activation: HAMSTER, LIVER, S-9, AROCLOR 1254 (10%), Method: PREINCUBATION): inactive; negative
mutagenic call (Test System: AMES SALMONELLA TYPHIMURIUM, Strain/Indicator: TA1535, Metabolic Activation: NONE, Method: PREINCUBATION): inactive; negative
mutagenic call (Test System: AMES SALMONELLA TYPHIMURIUM, Strain/Indicator: TA1535, Metabolic Activation: RAT, LIVER, S-9, AROCLOR 1254 (10%), Method: PREINCUBATION): inactive; negative

CC1=CC(=C(C#N)C#N)C=C(C=Cc2ccc(N(C)C)cc2)O1
mutagenic call (Test System: AMES SALMONELLA TYPHIMURIUM, Strain/Indicator: TA96, Metabolic Activation: RAT, LIVER, S-9, AROCLOR 1254, Method: STANDARD PLATE): active; positive
mutagenic call (Test System: AMES SALMONELLA TYPHIMURIUM, Strain/Indicator: TA97, Metabolic Activation: RAT, LIVER, S-9, AROCLOR 1254, Method: STANDARD PLATE): active; positive
mutagenic call (Test System: AMES SALMONELLA TYPHIMURIUM, Strain/Indicator: TA98, Metabolic Activation: RAT, LIVER, S-9, AROCLOR 1254, Method: STANDARD PLATE): active; positive
mutagenic call (Test System: AMES SALMONELLA TYPHIMURIUM, Strain/Indicator: TA100, Metabolic Activation: RAT, LIVER, S-9, AROCLOR 1254, Method: STANDARD PLATE): active; positive
mutagenic call (Test System: AMES SALMONELLA TYPHIMURIUM, Strain/Indicator: TA102, Metabolic Activation: RAT, LIVER, S-9, AROCLOR 1254, Method: STANDARD PLATE): active; positive
mutagenic call (Test System: AMES SALMONELLA TYPHIMURIUM, Strain/Indicator: TA104, Metabolic Activation: RAT, LIVER, S-9, AROCLOR 1254, Method: STANDARD PLATE): active; positive
mutagenic call [3]: inactive; negative
mutagenic call (Test System: AMES SALMONELLA TYPHIMURIUM, Strain/Indicator: TA1538, Metabolic Activation: RAT, LIVER, MICROSOMES, 3-METHYLCHOLANTHRENE, Method: STANDARD PLATE): active; positive
mutagenic call (Test System: AMES SALMONELLA TYPHIMURIUM, Strain/Indicator: TA1538, Metabolic Activation: RAT, LIVER, MICROSOMES, AROCLOR 1254, Method: STANDARD PLATE): active; positive
mutagenic call (Test System: AMES SALMONELLA TYPHIMURIUM, Strain/Indicator: TA1538, Metabolic Activation: RAT, LIVER, MICROSOMES, PHENOBARBITAL, Method: STANDARD PLATE): active; positive
mutagenic call (Test System: AMES SALMONELLA TYPHIMURIUM, Strain/Indicator: TA1538, Metabolic Activation: RAT, LIVER, MICROSOMES, Method: STANDARD PLATE): active; positive
mutagenic call (Test System: AMES SALMONELLA TYPHIMURIUM, Strain/Indicator: TA1538, Metabolic Activation: RAT, LIVER, S-9, AROCLOR 1254, Method: STANDARD PLATE): active; positive

O=C(Nc1ccc(F)cc1)c1csc([N+](=O)[O-])c1
mutagenic call [4]: active; positive
mutagenic call [5]: active; positive

CC12CCC(CC1=O)C2(C)C (configuration not stated) (tested in a mixture with another compound)
mutagenic call (End Point: IN VITRO CHROMOSOMAL ABERRATIONS, Test System: SYRIAN HAMSTER EMBRYO (SHE) CELLS, Metabolic Activation: NONE): active; positive (structural changes)
mutagenic call (End Point: In vitro chromosomal aberrations, Test System: D824 human dental pulp cells, Metabolic Activation: Rat, Liver, Postmitochondrial supernate (5%)): inactive; negative

O=[N+]([O-])c1ccc(-c2nc3sccn3c2[N+](=O)[O-])cc1
mutagenic call [4]: active; positive
mutagenic call [5]: active; positive
mutagenic call (Test System: AMES SALMONELLA TYPHIMURIUM, Strain/Indicator: TA1535, Metabolic Activation: NONE, Method: STANDARD PLATE): inactive; negative
mutagenic call (Test System: AMES SALMONELLA TYPHIMURIUM, Strain/Indicator: TA1537, Metabolic Activation: NONE, Method: STANDARD PLATE): active; positive
mutagenic call [3]: active; positive

CN(CCCCO)N=O
mutagenic call (Test System: AMES SALMONELLA TYPHIMURIUM, Strain/Indicator: TA1535, Metabolic Activation: RAT, LIVER, S-9, KC500 OR PHENOBARBITAL, Method: LIQUID SUSPENSION): active; positive

CC(=O)Nc1ccc(-c2ccccc2)cc1
mutagenic call (Test System: AMES SALMONELLA TYPHIMURIUM, Strain/Indicator: TA98, Metabolic Activation: RAT, LIVER, S-9, KC500 OR PHENOBARBITAL, Method: LIQUID SUSPENSION): active; positive
mutagenic call (Test System: AMES SALMONELLA TYPHIMURIUM, Strain/Indicator: TA100 (1,8-DNP), Metabolic Activation: MOUSE LIVER S-9, AROCLOR 1254, 10%, Method: PREINCUBATION): active; positive
mutagenic call (Test System: AMES SALMONELLA TYPHIMURIUM, Strain/Indicator: TA100 (1,8-DNP), Metabolic Activation: RAT LIVER S-9, AROCLOR 1254, 10%, Method: PREINCUBATION): active; positive
mutagenic call (Test System: AMES SALMONELLA TYPHIMURIUM, Strain/Indicator: TA100, Metabolic Activation: MOUSE LIVER S-9, AROCLOR 1254, 10%, Method: PREINCUBATION): active; positive
mutagenic call (Test System: AMES SALMONELLA TYPHIMURIUM, Strain/Indicator: TA100, Metabolic Activation: RAT LIVER S-9, AROCLOR 1254, 10%, Method: PREINCUBATION): active; positive
mutagenic call (Test System: AMES SALMONELLA TYPHIMURIUM, Strain/Indicator: TA100, Metabolic Activation: RAT, LIVER, S-9, KC500 OR PHENOBARBITAL, Method: LIQUID SUSPENSION): active; positive
mutagenic call (Test System: AMES SALMONELLA TYPHIMURIUM, Strain/Indicator: YG1029, Metabolic Activation: MOUSE LIVER S-9, AROCLOR 1254, 10%, Method: PREINCUBATION): active; positive
mutagenic call (Test System: AMES SALMONELLA TYPHIMURIUM, Strain/Indicator: YG1029, Metabolic Activation: RAT LIVER S-9, AROCLOR 1254, 10%, Method: PREINCUBATION): active; positive

CC(Cl)CO (configuration not stated)
mutagenic call (Test System: AMES SALMONELLA TYPHIMURIUM, Strain/Indicator: TA1530, Metabolic Activation: NONE, Method: STANDARD PLATE): active; positive
mutagenic call (Test System: AMES SALMONELLA TYPHIMURIUM, Strain/Indicator: TA1535, Metabolic Activation: RAT, LIVER, S-9, PCB, Method: STANDARD PLATE): active; positive

O=[N+]([O-])c1cccc(CBr)c1
mutagenic call [1]: inactive; negative
mutagenic call [2]: inactive; negative
mutagenic call (Test System: AMES SALMONELLA TYPHIMURIUM, Strain/Indicator: TA100, Metabolic Activation: RAT, LIVER, S-9, AROCLOR 1254, Method: PREINCUBATION): inactive; negative
